# How the values were obtained:
# WT MelBSt = molecular target: T1, WT MelBSt (Salmonella typhimurium, UniProt P30878); assay: biochemical; format: binding; conditions: for IC50: IC50 of galactoside displacement on bound D2G, α-NPG, 10 μM D2G
# T1 construct: Cys scanning mutagenesis for the full-length MelBSt; His10 (C); made in house; host or cells: E. coli DW2
# Experimental: Fig. 1 Functional characterizations. a [^3H] Melibiose transport time course with intact cells. […] Inset, melibiose fermentation assay. Transformants with DW2 strain were plated on MacConkey agar plates containing 30 mM melibiose as the sole carbohydrate source and pH sensor neutral red, and incubated at 37 °C for 16–18 h before imaging. Number of tests = 3, from different batch of cells or duplicate measurements from same batch of sample. b Ligand binding by Trp→dansyl galactoside (D^2G) FRET assay. Purified proteins at 1 μM concentration in 20 mM Tris-HCl, pH 7.5, 100 mM CholCl, 10% glycerol, and 0.03% UDM were subjected to steady-state fluorescence measurements as described in Methods. On the time-trace, 1.8 μL of 1 mM D^2G at 10 μM was added into 180 μL of protein solutions at 1-min point, followed by supplying 10 μL of 5 mM DDMB or 5 mM α-NPG to displace the bound D^2G. For testing Na^+ or Li^+ binding, they are added into the solution before displacement with the second sugar. The structure of DDMB or α-NPG is shown in a chair form, and the carbon positions are labeled. Glycosidic bonds are indicated by arrows. Both are α-galactosides containing a substituent at the anomeric carbon-1. The data were from duplicate measurements.
# Steady-state fluorescence measurements were performed with an AMINCO-Bowman series 2 spectrometer with purified MelBSt at 1 μM in 20 mM Tris-HCl, pH 7.5, 100 mM CholCl, 10% glycerol, 0.03% UDM. Using an excitation wavelength at 290 nm, the emission intensity was recorded at 490 nm. On a time-trace, D^2G, NaCl or LiCl, then DDMB or α-NPG, were sequentially added into the protein solutions at a 1 min-interval. […] An identical volume of water was used for the control. The decrease in intensity after each addition of DDMB or α-NPG was corrected by the dilution effect and plotted as a function of the accumulated α-NPG concentrations or estimated DDMB concentrations. The 50% inhibitory concentration (IC50) was determined by fitting a hyperbolic function to the data (OriginPro 2020b). The final concentration of each detergent is estimated to be 234 μM, which is less than their CMC value for (DDMB, 295 μM).
# Supplementary Figure 2. Determination of DDMB binding affinity to MelBSt. (a) Titration with DDMB or a-NPG. MelBSt in 20 mM Tris-HCl, pH 7.5, 100 mM CholCl, 10% glycerol, 0.03% UDM without (1) or with 100 mM NaCl (2) were added with D2G at 10 μM at 1-min time point as indicated by triangle symbols on the Trp®dansyl FRET time trace. Starting at the 2-min of time point, DDMB or a-NPG solution was supplemented consecutively at a 1-min interval into MelBSt solution till no change in fluorescence intensity reached as indicated in star symbols. DDM and UDM were used as negative controls. 1% DDM or UDM was titrated into the mixture, The […]
# At 2-min time point, additions of galactosides were colored in pink, a-NPG in yellow, UDM in blue, DDM in light blue, water in gray traces, respectively. (b) IC50 determination. The intensity decrease at each titration were corrected by the dilution effect, and plotted as a function of the accumulated DDMB or α-NPG concentration. The 50% inhibitory concentration (IC50) was determined by fitting the data to a hyperbolic function (OriginPro 2020b). Results are presented in […]
# (1 picture or pasted object on this page, not shown here)
# D59A MelBSt = molecular target: T2, D59A MelBSt (Salmonella typhimurium, UniProt P30878, D59A); assay: Trp→dansyl galactoside (D2G) FRET time trace (D59A); format: binding; conditions: no Na+ or Li+ stimulation
# T2 construct: Cys scanning mutagenesis for the full-length MelBSt; His10 (C); made in house; host or cells: E. coli DW2
# T2 sequence (P30878 whole entry D59A): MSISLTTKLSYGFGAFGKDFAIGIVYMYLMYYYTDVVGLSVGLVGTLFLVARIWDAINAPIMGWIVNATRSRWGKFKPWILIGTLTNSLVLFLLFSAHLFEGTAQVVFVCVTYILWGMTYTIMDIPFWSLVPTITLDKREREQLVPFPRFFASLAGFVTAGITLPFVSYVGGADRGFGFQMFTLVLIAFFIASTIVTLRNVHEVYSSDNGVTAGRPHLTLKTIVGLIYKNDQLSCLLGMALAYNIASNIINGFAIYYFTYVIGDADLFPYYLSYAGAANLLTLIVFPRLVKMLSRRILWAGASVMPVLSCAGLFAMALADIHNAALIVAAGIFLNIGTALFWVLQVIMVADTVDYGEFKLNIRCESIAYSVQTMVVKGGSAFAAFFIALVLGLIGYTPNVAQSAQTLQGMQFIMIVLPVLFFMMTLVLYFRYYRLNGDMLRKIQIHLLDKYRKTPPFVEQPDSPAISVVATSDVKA
# Experimental: Fig. 1 Functional characterizations. a [^3H] Melibiose transport time course with intact cells. E. coli DW2 strain (melB^−, lacZ^−Y^−) expressed with the WT, D59C, or D59A MelBSt mutants were subjected to [^3H]melibiose active transport assay at 0.4 mM and 10 mCi/mmol in the presence of 20 mM or 100 mM NaCl or LiCl by a fast filtration method. Inset, melibiose fermentation assay. Transformants with DW2 strain were plated on MacConkey agar plates containing 30 mM melibiose as the sole carbohydrate source and pH sensor neutral red, and incubated at 37 °C for 16–18 h before imaging. Number of tests = 3, from different batch of cells or duplicate measurements from same batch of sample. b Ligand binding by Trp→dansyl galactoside (D^2G) FRET assay. Purified proteins at 1 μM concentration in 20 mM Tris-HCl, pH 7.5, 100 mM CholCl, 10% glycerol, and 0.03% UDM were subjected to steady-state fluorescence measurements as described in Methods. […]
# Steady-state fluorescence measurements were performed with an AMINCO-Bowman series 2 spectrometer with purified MelBSt at 1 μM in 20 mM Tris-HCl, pH 7.5, 100 mM CholCl, 10% glycerol, 0.03% UDM. Using an excitation wavelength at 290 nm, the emission intensity was recorded at 490 nm. […]
# T1 sequence (P30878 whole entry): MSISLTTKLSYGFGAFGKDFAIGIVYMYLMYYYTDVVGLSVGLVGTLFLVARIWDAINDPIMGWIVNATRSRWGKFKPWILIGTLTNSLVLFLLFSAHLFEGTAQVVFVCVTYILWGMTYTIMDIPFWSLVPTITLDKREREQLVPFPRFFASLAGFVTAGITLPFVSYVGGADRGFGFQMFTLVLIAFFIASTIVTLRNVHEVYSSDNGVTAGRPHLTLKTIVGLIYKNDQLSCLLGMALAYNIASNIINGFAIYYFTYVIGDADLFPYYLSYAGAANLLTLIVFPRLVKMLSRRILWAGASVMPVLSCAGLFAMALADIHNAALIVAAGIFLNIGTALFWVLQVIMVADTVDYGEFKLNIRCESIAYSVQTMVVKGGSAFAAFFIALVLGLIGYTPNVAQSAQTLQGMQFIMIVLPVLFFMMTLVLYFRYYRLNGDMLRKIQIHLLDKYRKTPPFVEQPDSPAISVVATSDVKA
compound,measurement,setting,value
"O=[N+]([O-])c1ccc(OC2OC(CO)C(O)C(O)C2O)cc1 [α-NPG, 4-nitrophenyl-α-D-galactopyranoside]",IC50,WT MelBSt; Apo,58.2 ± 11.5 µM
same,IC50,WT MelBSt; Na+ (100 mM),23 ± 2.24 µM
same,effect on Trp→D2G FRET of D2G-bound protein (displacement),WT MelBSt; added to D2G-bound WT MelBSt,large decrease in fluorescent intensity
same,ligand binding by Trp→D2G FRET,D59A MelBSt,binds

# Reference: publication PMC8329300, “X-ray crystallography reveals molecular recognition mechanism for sugar binding in a melibiose transporter MelB” (Communications Biology, 2021)
